Assay results published in patent US9723840B2 (SYNGENTA PARTICIPATIONS AG, priority 2013, dated 2017).

Columns and labels:
Format in all cases: in vivo
Alopecurus myosuroides [1] = experiment: Pre-emergence herbicidal activity, ALOMY; details: 1000 g/Ha, pre-emergence spray, evaluated after 13 days, scale 0-5
Procedure: (§1) Seeds of a variety of test species were sown in standard soil in pots. After cultivation for one day (pre-emergence) under controlled conditions in a glasshouse (at 24/16° C., day/night; 14 hours light; 65% humidity), the plants were sprayed with an aqueous spray solution derived from the formulation of the technical active ingredient in acetone/water (50:50) solution containing 0.5% Tween 20 (polyoxyethelyene sorbitan monolaurate, CAS RN 9005-64-5). The test plants were then grown in a glasshouse under controlled conditions (at 24/16° C., day/night; 14 hours light; 65% humidity) and watered twice daily. After 13 days, the test was evaluated (5=total damage to plant; 0=no damage to plant).

Alopecurus myosuroides [2] = experiment: Post-emergence herbicidal activity, ALOMY; parameters: key: 5=total damage to plant; 0=no damage to plant; details: 1000 g/Ha, post-emergence spray (8 days cultivation), evaluated after 13 days, scale 0-5
Procedure: (§2) Seeds of a variety of test species were sown in standard soil in pots. After 8 days cultivation (post-emergence) under controlled conditions in a glasshouse (at 24/16° C., day/night; 14 hours light; 65% humidity), the plants were sprayed with an aqueous spray solution derived from the formulation of the technical active ingredient in acetone/water (50:50) solution containing 0.5% Tween 20 (polyoxyethelyene sorbitan monolaurate, CAS RN 9005-64-5). The test plants were then grown in a glasshouse under controlled conditions (at 24/16° C., day/night; 14 hours light; 65% humidity) and watered twice daily. After 13 days, the test was evaluated (5=total damage to plant; 0=no damage to plant).

Echinochloa crus-galli [3] = experiment: Post-emergence herbicidal activity, ECHCG; parameters: key: 5=total damage to plant; 0=no damage to plant; details: 1000 g/Ha, post-emergence spray (8 days cultivation), evaluated after 13 days, scale 0-5
Procedure: as §2

Abutilon theophrasti [4] = experiment: Post-emergence herbicidal activity, ABUTH; parameters: key: 5=total damage to plant; 0=no damage to plant; details: 1000 g/Ha, post-emergence spray (8 days cultivation), evaluated after 13 days, scale 0-5
Procedure: as §2

Abutilon theophrasti [5] = experiment: Pre-emergence herbicidal activity, ABUTH; parameters: key: 5=total damage to plant; 0=no damage to plant; details: 1000 g/Ha, pre-emergence spray, evaluated after 13 days, scale 0-5
Procedure: as §1

Setaria faberi [6] = experiment: Post-emergence herbicidal activity, SETFA; parameters: key: 5=total damage to plant; 0=no damage to plant; details: 1000 g/Ha, post-emergence spray (8 days cultivation), evaluated after 13 days, scale 0-5
Procedure: as §2

Amaranthus retroflexus [7] = experiment: Pre-emergence herbicidal activity, AMARE; parameters: key: 5=total damage to plant; 0=no damage to plant; details: 1000 g/Ha, pre-emergence spray, evaluated after 13 days, scale 0-5
Procedure: as §1

Echinochloa crus-galli [8] = experiment: Pre-emergence herbicidal activity, ECHCG; parameters: key: 5=total damage to plant; 0=no damage to plant; details: 1000 g/Ha, pre-emergence spray, evaluated after 13 days, scale 0-5
Procedure: as §1

Zea mays [9] = experiment: Post-emergence herbicidal activity, ZEAMX; parameters: key: 5=total damage to plant; 0=no damage to plant; details: 1000 g/Ha, post-emergence spray (8 days cultivation), evaluated after 13 days, scale 0-5
Procedure: as §2

Setaria faberi [10] = experiment: Pre-emergence herbicidal activity, SETFA; parameters: key: 5=total damage to plant; 0=no damage to plant; details: 1000 g/Ha, pre-emergence spray, evaluated after 13 days, scale 0-5
Procedure: as §1

Amaranthus retroflexus [11] = experiment: Post-emergence herbicidal activity, AMARE; parameters: key: 5=total damage to plant; 0=no damage to plant; details: 1000 g/Ha, post-emergence spray (8 days cultivation), evaluated after 13 days, scale 0-5
Procedure: as §2

Zea mays [12] = experiment: Pre-emergence herbicidal activity, ZEAMX; details: 1000 g/Ha, pre-emergence spray, evaluated after 13 days, scale 0-5
Procedure: as §1

SMILES | ALOMY damage score, application pre-emergence (Alopecurus myosuroides [1]) | ALOMY damage score, application post-emergence (Alopecurus myosuroides [2]) | ECHCG damage score, application post-emergence (Echinochloa crus-galli [3]) | ABUTH damage score, application post-emergence (Abutilon theophrasti [4]) | ABUTH damage score, application pre-emergence (Abutilon theophrasti [5]) | SETFA damage score, application post-emergence (Setaria faberi [6]) | AMARE damage score, application pre-emergence (Amaranthus retroflexus [7]) | ECHCG damage score, application pre-emergence (Echinochloa crus-galli [8]) | ZEAMX damage score, application post-emergence (Zea mays [9]) | SETFA damage score, application pre-emergence (Setaria faberi [10]) | AMARE damage score, application post-emergence (Amaranthus retroflexus [11]) | ZEAMX damage score, application pre-emergence (Zea mays [12])
CN1CC(O)N(c2cc(C(C)(C)F)c(Cl)nn2)C1=O (stereo not drawn) [Example A1] | 4 | 5 | 5 | 5 | 5 | 5 | 5 | 5 | 5 | 5 | 5 | 4
CC1C(O)N(c2cc(C(C)(C)F)c(-c3ccccc3)nn2)C(=O)N1C (stereo not drawn) [Example A3] | 4 | 4 | 5 | 5 | 5 | 5 | 5 | 4 | 4 | 5 | 5 | 3
CON1C(=O)N(c2ccc(C(=O)NC(C)(C)C)nn2)C(O)C1C (stereo not drawn) [Example A14] | 4 | 5 | 5 | 5 | 5 | 5 | 5 | 4 | 5 | 4 | 5 | 2
